Columns and labels:
Assay type in all cases: cell-based
[1] = target: T1, human TLR7 (Homo sapiens, UniProt Q9NYK1); assay: TLR7 inhibition reporter assay (HEK-Blue cells, SEAP reporter, gardiquimod stimulation); settings: HEK-Blue cells overexpressing human TLR7, SEAP reporter, gardiquimod 7.5 μM
T1 construct: host or cells: HEK-Blue cells
T1 sequence (Q9NYK1 27-1049): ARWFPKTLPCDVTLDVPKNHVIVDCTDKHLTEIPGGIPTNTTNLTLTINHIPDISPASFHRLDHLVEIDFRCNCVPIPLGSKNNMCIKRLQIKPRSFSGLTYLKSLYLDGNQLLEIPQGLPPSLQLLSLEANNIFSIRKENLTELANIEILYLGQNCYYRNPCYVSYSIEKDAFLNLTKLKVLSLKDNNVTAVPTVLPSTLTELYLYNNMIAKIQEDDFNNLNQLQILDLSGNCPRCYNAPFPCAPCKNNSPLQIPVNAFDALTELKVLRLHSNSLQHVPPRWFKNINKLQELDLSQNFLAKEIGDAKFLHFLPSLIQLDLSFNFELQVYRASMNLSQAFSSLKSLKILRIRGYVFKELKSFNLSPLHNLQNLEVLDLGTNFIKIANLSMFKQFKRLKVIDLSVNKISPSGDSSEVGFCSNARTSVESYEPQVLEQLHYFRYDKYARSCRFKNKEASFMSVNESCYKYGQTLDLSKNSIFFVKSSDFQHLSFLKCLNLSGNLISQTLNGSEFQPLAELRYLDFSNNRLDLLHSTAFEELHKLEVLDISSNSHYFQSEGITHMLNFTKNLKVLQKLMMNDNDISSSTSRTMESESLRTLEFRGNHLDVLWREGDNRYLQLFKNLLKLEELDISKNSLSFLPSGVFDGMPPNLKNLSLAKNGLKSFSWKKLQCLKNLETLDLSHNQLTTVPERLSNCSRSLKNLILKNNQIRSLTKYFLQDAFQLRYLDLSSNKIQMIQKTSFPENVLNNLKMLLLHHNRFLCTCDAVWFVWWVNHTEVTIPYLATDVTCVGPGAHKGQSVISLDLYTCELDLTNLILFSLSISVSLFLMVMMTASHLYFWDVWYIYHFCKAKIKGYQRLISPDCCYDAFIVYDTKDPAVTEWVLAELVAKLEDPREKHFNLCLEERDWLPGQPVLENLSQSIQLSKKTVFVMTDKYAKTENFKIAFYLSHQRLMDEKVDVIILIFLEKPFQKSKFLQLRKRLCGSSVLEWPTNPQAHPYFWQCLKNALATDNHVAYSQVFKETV
Outline: (§1)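 HEK-Blue cells with NF-κB/AP-1-driven SEAP reporter, pre-treated 30 min at room temperature with compound (0.05 nM-50 μM). Stimulants: gardiquimod 7.5 μM (TLR7), R848 15.9 μM (TLR8) or ODN2006 5 nM (TLR9). SEAP measured after 22 h at 37° C.; percent inhibition versus agonist-plus-DMSO and known-inhibitor wells.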

[2] = target: T2, human TLR8 (Homo sapiens, UniProt Q9NR97); assay: TLR8 inhibition reporter assay (HEK-Blue cells, SEAP reporter, R848 stimulation); settings: HEK-Blue cells overexpressing human TLR8, SEAP reporter, R848 15.9 μM
T2 construct: host or cells: HEK-Blue cells
T2 sequence (Q9NR97 27-1041): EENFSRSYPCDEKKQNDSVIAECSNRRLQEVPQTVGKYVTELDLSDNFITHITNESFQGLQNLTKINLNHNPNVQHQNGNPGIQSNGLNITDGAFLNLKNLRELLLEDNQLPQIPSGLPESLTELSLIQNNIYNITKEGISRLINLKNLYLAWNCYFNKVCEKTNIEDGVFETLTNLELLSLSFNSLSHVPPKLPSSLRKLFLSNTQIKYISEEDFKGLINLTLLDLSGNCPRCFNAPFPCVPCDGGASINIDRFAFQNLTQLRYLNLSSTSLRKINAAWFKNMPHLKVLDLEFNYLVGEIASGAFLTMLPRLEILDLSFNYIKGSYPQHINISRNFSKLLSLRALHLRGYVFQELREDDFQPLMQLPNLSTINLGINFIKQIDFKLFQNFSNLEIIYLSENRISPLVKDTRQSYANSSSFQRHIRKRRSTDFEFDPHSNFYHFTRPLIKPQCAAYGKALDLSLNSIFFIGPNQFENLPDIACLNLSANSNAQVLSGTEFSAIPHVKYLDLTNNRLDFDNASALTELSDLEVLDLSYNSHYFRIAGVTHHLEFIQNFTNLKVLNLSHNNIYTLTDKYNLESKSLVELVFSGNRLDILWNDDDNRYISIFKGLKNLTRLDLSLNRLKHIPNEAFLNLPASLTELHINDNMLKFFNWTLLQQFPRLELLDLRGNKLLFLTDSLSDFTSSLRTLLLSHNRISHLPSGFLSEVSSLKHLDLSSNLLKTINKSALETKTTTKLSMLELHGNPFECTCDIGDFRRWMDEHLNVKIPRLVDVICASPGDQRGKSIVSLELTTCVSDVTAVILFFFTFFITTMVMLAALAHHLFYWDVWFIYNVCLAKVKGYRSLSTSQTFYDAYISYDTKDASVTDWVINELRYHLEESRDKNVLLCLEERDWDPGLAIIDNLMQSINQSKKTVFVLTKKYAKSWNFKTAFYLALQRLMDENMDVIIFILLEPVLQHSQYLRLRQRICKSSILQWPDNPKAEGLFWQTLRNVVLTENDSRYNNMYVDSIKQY
Outline: as §1

[3] = target: T3, human TLR9 (Homo sapiens, UniProt Q9NR96); assay: TLR9 inhibition reporter assay (HEK-Blue cells, SEAP reporter, ODN2006 stimulation); settings: HEK-Blue cells overexpressing human TLR9, SEAP reporter, ODN2006 5 nM
T3 construct: host or cells: HEK-Blue cells
T3 sequence (Q9NR96 26-1032): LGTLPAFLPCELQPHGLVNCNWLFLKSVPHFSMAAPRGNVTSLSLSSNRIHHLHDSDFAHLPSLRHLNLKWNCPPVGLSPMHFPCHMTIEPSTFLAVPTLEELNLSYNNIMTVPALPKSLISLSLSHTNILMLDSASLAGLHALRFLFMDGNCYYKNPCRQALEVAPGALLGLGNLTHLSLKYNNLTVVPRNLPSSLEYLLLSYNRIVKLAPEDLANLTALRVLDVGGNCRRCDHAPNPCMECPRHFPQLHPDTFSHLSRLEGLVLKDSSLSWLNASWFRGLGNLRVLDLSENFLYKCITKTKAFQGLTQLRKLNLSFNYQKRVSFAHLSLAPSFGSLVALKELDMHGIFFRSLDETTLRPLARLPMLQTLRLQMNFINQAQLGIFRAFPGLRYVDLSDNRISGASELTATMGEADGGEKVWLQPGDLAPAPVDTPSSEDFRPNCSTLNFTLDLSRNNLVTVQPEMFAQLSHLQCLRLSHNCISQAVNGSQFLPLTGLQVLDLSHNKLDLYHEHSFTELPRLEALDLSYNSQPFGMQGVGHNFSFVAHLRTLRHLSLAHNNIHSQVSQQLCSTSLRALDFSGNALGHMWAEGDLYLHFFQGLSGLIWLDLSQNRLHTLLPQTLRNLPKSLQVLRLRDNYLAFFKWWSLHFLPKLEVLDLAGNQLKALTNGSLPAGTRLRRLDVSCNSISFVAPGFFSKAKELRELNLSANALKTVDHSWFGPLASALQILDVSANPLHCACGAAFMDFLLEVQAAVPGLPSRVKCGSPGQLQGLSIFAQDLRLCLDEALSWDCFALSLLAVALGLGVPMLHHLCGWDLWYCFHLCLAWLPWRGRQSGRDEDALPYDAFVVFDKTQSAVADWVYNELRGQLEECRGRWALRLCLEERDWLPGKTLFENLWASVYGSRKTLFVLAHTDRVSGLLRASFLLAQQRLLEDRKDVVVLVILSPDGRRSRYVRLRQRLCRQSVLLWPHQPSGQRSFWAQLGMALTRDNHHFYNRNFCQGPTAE
Outline: as §1

Compound | IC50 [1] | IC50 [2] | IC50 [3]
Cc1cc(-c2[nH]c3ccc([C@@H]4C[C@H]4CN4CCCC4)cc3c2C(C)C)ccn1 [Example 464] | 28 nM | 3.4 nM | 271 nM
Cc1cc(-c2[nH]c3ccc(C4CCC(N5CCC(F)(F)CC5)CC4)cc3c2C(C)C)cn(C)c1=O (stereo not drawn) [Example 465] | 3 nM | 3.3 nM | > 50000 nM
Cc1cc(-c2[nH]c3ccc(C4CCC(N5CCC(F)(F)CC5)CC4)cc3c2C(C)C)cn(C)c1=O (stereo not drawn) [Example 466] | 32 nM | 26 nM | > 50000 nM
Cc1cc(-c2[nH]c3ccc(C4CCC(N5CCCC(F)(F)C5)CC4)cc3c2C(C)C)cn(C)c1=O (stereo not drawn) [Example 467] | 48 nM | 33 nM | 47000 nM
Cc1cc(-c2[nH]c3ccc(C4CCC(N5CCCC(F)(F)C5)CC4)cc3c2C(C)C)cn(C)c1=O (stereo not drawn) [Example 468] | 280 nM | 219 nM | > 50000 nM
Cc1cc(-c2[nH]c3ccc(C4CCCCC4)cc3c2C(C)C)cc(C)n1 [Example 469] | 1110 nM | 3130 nM | 9020 nM
Cc1cc(-c2[nH]c3ccc(C4CCCCC4)cc3c2C(C)C)cn(C)c1=O [Example 470] | 568 nM | 3130 nM | 18300 nM
Cc1c(-c2[nH]c3ccc(C4CCC(NC(=O)CN(C)C)CC4)cc3c2C(C)C)cn(C)c(=O)c1C (stereo not drawn) [Example 471] | 43 nM | 14 nM | 38300 nM
Cc1c(-c2[nH]c3ccc(C4CCC(NC(=O)CN(C)C)CC4)cc3c2C(C)C)cn(C)c(=O)c1C (stereo not drawn) [Example 472] | 3 nM | 4.6 nM | 23700 nM
Cc1c(-c2[nH]c3ccc(C4CCC(NCC(=O)N(C)C)CC4)cc3c2C(C)C)cn(C)c(=O)c1C (stereo not drawn) [Example 473] | 34 nM | 15 nM | 8970 nM
Cc1c(-c2[nH]c3ccc(C4CCC(NC5COC5)CC4)cc3c2C(C)C)cn(C)c(=O)c1C (stereo not drawn) [Example 474] | 45 nM | 19 nM | 28900 nM
Cc1c(-c2[nH]c3ccc(C4CCC(N(C)C)CC4)cc3c2C(C)C)cn(C)c(=O)c1C (stereo not drawn) [Example 475] | 26 nM | 28 nM | 10600 nM
Cc1c(-c2[nH]c3ccc(C4CCC(N(C)C)CC4)cc3c2C(C)C)cn(C)c(=O)c1C (stereo not drawn) [Example 476] | 3 nM | 2.6 nM | 4770 nM
Cc1c(-c2[nH]c3ccc(C4CCC(NC5COC5)CC4)cc3c2C(C)C)cn(C)c(=O)c1C (stereo not drawn) [Example 477] | 2 nM | 1.8 nM | 8210 nM
Cc1c(-c2[nH]c3ccc(C4CCC(NC5COC5)CC4)cc3c2C(C)C)cn(C)c(=O)c1C (stereo not drawn) [Example 478] | 20 nM | 7.6 nM | 10200 nM
Cc1c(-c2[nH]c3ccc(C4CCC(NCC(=O)N(C)C)CC4)cc3c2C(C)C)cn(C)c(=O)c1C (stereo not drawn) [Example 479] | 5 nM | 4.1 nM | 8610 nM
Cc1c(-c2[nH]c3ccc(C4CCC(NCC(=O)N(C)C)CC4)cc3c2C(C)C)cn(C)c(=O)c1C (stereo not drawn) [Example 480] | 20 nM | 6.3 nM | 6200 nM
Cc1c(-c2[nH]c3ccc(C4CN(C5CCOCC5)C4)cc3c2C(C)C)cn(C)c(=O)c1C [Example 481] | 109 nM | 27 nM | 32800 nM
Cc1c(-c2[nH]c3ccc(C4CN(C(C)C)C4)cc3c2C(C)C)cn(C)c(=O)c1C [Example 482] | 34 nM | 9.2 nM | 10300 nM
Cc1c(-c2[nH]c3ccc(C4CN(CCS(C)(=O)=O)C4)cc3c2C(C)C)cn(C)c(=O)c1C [Example 483] | 61 nM | 8.8 nM | 22700 nM
Cc1c(-c2[nH]c3ccc(C4CN(C(=O)CN(C)C)C4)cc3c2C(C)C)cn(C)c(=O)c1C [Example 484] | 41 nM | 9.5 nM | 16500 nM
Cc1c(-c2[nH]c3ccc(C4CN(C5COC5)C4)cc3c2C(C)C)cn(C)c(=O)c1C [Example 485] | 46 nM | 27 nM | 48000 nM
COCCN1CC(c2ccc3[nH]c(-c4cn(C)c(=O)c(C)c4C)c(C(C)C)c3c2)C1 [Example 487] | 45 nM | 5.8 nM | 10500 nM
CCCN1CC(c2ccc3[nH]c(-c4cn(C)c(=O)c(C)c4C)c(C(C)C)c3c2)C1 [Example 488] | 22 nM | 6 nM | 4240 nM
Cc1c(-c2[nH]c3ccc(C4CN(CC(=O)N(C)C)C4)cc3c2C(C)C)cn(C)c(=O)c1C [Example 489] | 128 nM | 20 nM | 14900 nM
Cc1c(-c2[nH]c3ccc(C4CC(NC(=O)CN(C)C)C4)cc3c2C(C)C)cn(C)c(=O)c1C (stereo not drawn) [Example 490] | 2 nM | 1 nM | 13500 nM
Cc1c(-c2[nH]c3ccc(C4CC(N)C4)cc3c2C(C)C)cn(C)c(=O)c1C (stereo not drawn) [Example 492] | 4 nM | 1.6 nM | 6070 nM

— patent US11878975B2, “Substituted indole compounds useful as TLR inhibitors” (BRISTOL-MYERS SQUIBB COMPANY, priority 2017, dated 2024)
